From patent publication US9598414B2, “Substituted benzo[5,6]azepino[3,2,1-hi]pyrido[4,3-b]indoles and substituted benzo[6,7][1,4]oxazepino[2,3,4-hi]pyrido[4,3-b]indoles for treating CNS disorders” (Daya Drug Discoveries, Inc., priority 2013, dated 2017)
pKi: −log10 of the molar value.

How the values were obtained:
[1] = test system: rats with a history of chronic meth self-administration; assay: Reinstatement of meth seeking; format: in vivo; conditions: 10 mg/kg i.p. just before reinstatement session (meth priming 1 mg/kg i.p. and cues), FIG. 3
Method: DDD-024 was initially tested for effects on the reinstatement of meth seeking in a small pilot group of rats with a history of chronic meth self-administration. […] Rats received a vehicle (10% DMSO) or DDD-024 (10 mg/kg) injection (i.p.) just before each reinstatement session, which consisted of a meth priming injection (1 mg/kg, i.p.) and presentation of meth-associated cues (tone and light) upon each lever press.

[2] = test system: mice (129SV/PAS background); assay: MDMA-induced motor behavior (locomotor activity); format: in vivo; conditions: FIG. 4
Method: In this in vivo study, locomotor activity was measured in a circular corridor with four infrared beams placed at every 90° (Imetronic, France). Counts were incremented by consecutive interruption of two adjacent beams (i.e. mice moving through one-quarter of the corridor). DDD-024 was tested in MDMA-induced motor behavior at 5, 10 and 20 mg/kg, ip, in mice (129SV/PAS background, 8 week old, Charles River Laboratories). The animals were injected with vehicle and individually placed in the activity box for 30 min during 3 days consecutively for habituation before experiments. Mice received vehicle or DDD-024 (5-20 mg/kg, i.p.) injection 30 min before MDMA injection (10 mg/kg).

β-Adrenergic β2 = β-Adrenergic β2 (Homo sapiens, UniProt P07550); assay: Receptor binding, β2
Sigma σ1 = Sigma σ1 (Homo sapiens, UniProt Q99720); assay: Receptor binding, σ1
Chain of Sigma σ1 (Q99720 whole entry): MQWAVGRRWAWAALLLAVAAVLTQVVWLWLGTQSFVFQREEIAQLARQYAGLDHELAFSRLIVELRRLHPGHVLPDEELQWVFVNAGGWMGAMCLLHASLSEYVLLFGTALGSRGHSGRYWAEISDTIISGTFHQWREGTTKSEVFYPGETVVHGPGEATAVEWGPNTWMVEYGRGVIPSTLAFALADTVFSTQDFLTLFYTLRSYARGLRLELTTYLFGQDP

Histamine H3 = Histamine H3 (Homo sapiens, UniProt Q9Y5N1); assay: Receptor binding, H3
Chain of Histamine H3 (Q9Y5N1 whole entry): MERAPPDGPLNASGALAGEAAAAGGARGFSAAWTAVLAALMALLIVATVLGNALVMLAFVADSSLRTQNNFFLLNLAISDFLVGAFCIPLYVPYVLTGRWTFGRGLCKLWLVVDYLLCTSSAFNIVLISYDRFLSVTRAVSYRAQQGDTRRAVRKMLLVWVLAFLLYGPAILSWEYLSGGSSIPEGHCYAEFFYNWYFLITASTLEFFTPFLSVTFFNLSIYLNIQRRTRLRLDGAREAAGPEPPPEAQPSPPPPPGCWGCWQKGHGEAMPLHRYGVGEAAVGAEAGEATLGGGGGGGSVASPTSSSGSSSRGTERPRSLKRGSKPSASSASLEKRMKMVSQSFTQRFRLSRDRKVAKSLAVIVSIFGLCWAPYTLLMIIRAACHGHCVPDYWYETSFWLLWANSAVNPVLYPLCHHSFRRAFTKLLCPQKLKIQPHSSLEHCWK

α-Adrenergic α1A = α-Adrenergic α1A (Homo sapiens, UniProt P35348); assay: Receptor binding, α1A
Serotonin 5-HT2A = Serotonin 5-HT2A (Homo sapiens, UniProt P28223); assay: Receptor binding, 5-HT2A
Chain of Serotonin 5-HT2A (P28223 whole entry): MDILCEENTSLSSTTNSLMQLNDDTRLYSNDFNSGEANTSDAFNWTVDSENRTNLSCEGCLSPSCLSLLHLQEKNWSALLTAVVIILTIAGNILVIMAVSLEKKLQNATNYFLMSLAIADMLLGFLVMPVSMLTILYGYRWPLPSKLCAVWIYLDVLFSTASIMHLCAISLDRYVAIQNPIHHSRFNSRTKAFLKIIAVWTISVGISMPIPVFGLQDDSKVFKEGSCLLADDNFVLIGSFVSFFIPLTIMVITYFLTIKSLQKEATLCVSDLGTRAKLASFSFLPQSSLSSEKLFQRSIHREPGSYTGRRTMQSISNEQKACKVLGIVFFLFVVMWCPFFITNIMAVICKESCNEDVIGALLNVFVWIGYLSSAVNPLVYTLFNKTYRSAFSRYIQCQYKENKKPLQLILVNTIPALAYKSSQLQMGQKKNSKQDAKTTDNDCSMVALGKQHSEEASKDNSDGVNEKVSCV

Dopamine transporter = Dopamine transporter (Homo sapiens, UniProt Q01959); assay: Receptor binding, dopamine transporter; conditions: Transporters: Dopamine
Dopamine D2 = Dopamine D2 (Homo sapiens, UniProt P14416); assay: Receptor binding, D2
Chain of Dopamine D2 (P14416 whole entry): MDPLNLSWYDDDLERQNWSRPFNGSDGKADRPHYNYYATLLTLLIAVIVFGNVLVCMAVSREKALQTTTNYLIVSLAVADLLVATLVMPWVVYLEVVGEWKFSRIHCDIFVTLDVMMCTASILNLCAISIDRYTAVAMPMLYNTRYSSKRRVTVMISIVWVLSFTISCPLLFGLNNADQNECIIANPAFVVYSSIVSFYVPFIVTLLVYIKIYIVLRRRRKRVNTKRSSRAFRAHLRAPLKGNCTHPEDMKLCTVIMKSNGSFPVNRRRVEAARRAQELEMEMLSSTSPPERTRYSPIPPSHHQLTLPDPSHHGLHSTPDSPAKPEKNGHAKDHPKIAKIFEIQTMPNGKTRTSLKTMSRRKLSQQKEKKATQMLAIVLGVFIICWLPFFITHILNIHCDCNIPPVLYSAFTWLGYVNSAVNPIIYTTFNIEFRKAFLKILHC

Histamine H2 = Histamine H2 (Homo sapiens, UniProt P25021); assay: Receptor binding, H2
α-Adrenergic α1B = α-Adrenergic α1B (Homo sapiens, UniProt P35368); assay: Receptor binding, α1B
Chain of α-Adrenergic α1B (P35368 whole entry): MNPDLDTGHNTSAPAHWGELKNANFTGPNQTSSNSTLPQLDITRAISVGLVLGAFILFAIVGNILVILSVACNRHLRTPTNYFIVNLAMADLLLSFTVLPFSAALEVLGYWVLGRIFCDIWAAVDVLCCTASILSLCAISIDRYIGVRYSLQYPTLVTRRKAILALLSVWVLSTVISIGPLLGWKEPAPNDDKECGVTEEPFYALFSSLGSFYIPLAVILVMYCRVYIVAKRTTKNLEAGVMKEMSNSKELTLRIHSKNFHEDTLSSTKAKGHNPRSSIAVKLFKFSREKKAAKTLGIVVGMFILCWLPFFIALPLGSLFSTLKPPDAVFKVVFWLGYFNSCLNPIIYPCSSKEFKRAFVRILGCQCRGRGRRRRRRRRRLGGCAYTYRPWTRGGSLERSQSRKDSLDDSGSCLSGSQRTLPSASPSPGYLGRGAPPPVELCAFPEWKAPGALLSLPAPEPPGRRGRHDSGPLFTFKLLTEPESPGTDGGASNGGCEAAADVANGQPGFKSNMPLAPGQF

Serotonin 5-HT2C = target: T1, Serotonin 5-HT2C (Homo sapiens, UniProt P28335); assay: Receptor binding, 5-HT2C
T1 sequence (P28335 33-458): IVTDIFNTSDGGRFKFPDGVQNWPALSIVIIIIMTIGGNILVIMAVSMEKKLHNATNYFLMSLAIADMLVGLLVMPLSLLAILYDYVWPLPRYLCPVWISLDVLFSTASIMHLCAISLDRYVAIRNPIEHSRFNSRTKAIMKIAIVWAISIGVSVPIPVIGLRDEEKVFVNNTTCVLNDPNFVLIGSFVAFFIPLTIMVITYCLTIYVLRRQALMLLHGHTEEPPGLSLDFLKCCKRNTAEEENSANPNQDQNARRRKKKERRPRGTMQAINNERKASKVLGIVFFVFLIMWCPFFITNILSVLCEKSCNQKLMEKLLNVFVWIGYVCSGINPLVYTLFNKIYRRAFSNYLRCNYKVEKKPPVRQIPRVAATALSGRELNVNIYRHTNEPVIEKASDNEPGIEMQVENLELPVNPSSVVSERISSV

dopamine receptors = assay: Receptor binding, dopamine receptors; conditions: any of the dopamine receptors, summary of Table 1
Serotonin 5-HT5A = Serotonin 5-HT5A (Homo sapiens, UniProt P47898); assay: Receptor binding, 5-HT5A
Opioid δ = Opioid δ (Homo sapiens, UniProt P41143); assay: Receptor binding, opioid δ
Chain of Opioid δ (P41143 whole entry): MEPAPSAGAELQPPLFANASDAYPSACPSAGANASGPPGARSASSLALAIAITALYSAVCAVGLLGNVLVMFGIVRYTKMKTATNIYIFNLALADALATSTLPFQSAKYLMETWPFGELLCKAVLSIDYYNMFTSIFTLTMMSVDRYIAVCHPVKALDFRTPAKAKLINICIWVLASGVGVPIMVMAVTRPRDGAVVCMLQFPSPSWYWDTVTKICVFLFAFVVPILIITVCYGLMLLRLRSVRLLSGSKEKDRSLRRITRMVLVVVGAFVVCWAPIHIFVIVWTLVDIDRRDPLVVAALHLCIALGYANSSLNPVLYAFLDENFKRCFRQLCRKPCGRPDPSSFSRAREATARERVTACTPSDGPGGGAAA

β-Adrenergic β3 = β-Adrenergic β3 (Homo sapiens, UniProt P13945); assay: Receptor binding, β3
Chain of β-Adrenergic β3 (P13945 whole entry): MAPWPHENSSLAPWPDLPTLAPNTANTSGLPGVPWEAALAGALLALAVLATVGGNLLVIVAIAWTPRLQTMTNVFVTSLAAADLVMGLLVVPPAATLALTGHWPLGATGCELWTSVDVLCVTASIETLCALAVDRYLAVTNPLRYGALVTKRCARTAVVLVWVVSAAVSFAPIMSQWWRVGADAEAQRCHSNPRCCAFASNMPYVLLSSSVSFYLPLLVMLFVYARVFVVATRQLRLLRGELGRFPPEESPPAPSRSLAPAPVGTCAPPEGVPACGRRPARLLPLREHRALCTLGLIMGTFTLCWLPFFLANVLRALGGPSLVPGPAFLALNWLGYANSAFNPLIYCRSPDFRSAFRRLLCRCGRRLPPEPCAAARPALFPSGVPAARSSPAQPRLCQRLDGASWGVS

Opioid μ = Opioid μ (Homo sapiens, UniProt P35372); assay: Receptor binding, opioid μ
Dopamine D4 = Dopamine D4 (Homo sapiens, UniProt P21917); assay: Receptor binding, D4
Serotonin 5-HT1B = Serotonin 5-HT1B (Homo sapiens, UniProt P28222); assay: Receptor binding, 5-HT1B
Serotonin transporter = Serotonin transporter (Homo sapiens, UniProt P31645); assay: Receptor binding, serotonin transporter
Chain of Serotonin transporter (P31645 whole entry): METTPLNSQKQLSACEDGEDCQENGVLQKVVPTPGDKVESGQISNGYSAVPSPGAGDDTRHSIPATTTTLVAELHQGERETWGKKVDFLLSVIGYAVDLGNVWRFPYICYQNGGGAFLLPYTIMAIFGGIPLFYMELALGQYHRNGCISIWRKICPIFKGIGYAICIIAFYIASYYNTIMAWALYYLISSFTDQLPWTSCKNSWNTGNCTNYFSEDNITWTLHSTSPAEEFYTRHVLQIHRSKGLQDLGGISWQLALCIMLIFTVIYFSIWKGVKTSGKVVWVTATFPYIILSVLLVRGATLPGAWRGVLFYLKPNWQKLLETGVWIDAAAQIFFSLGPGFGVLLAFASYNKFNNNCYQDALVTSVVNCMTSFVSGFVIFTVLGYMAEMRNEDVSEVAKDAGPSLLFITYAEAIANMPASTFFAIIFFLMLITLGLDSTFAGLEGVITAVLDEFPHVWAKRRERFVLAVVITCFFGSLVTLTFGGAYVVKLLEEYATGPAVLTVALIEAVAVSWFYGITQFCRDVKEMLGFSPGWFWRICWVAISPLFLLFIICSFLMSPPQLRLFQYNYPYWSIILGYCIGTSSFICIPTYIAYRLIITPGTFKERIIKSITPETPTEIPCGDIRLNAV

Muscarinic M3 = Muscarinic M3 (Homo sapiens, UniProt P20309); assay: Receptor binding, M3
Chain of Muscarinic M3 (P20309 whole entry): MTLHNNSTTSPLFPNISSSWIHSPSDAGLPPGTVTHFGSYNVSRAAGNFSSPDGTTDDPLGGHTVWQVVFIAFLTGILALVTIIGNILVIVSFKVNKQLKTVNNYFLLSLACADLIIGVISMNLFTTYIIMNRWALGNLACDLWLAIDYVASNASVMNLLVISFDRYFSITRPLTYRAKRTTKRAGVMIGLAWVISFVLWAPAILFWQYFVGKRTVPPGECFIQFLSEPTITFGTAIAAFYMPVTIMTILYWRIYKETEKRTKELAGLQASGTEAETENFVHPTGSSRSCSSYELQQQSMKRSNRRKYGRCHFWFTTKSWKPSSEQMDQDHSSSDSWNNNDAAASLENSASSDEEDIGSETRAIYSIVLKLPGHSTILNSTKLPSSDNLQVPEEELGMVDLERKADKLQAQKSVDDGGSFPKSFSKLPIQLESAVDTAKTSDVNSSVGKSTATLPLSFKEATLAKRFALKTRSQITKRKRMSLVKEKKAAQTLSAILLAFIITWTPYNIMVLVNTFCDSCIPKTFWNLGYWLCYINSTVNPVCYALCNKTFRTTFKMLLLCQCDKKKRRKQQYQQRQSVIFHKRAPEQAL

Serotonin 5-HT1A = target: T2, Serotonin 5-HT1A (Homo sapiens, UniProt P08908); assay: Receptor binding, 5-HT1A
T2 sequence (P08908 1-422): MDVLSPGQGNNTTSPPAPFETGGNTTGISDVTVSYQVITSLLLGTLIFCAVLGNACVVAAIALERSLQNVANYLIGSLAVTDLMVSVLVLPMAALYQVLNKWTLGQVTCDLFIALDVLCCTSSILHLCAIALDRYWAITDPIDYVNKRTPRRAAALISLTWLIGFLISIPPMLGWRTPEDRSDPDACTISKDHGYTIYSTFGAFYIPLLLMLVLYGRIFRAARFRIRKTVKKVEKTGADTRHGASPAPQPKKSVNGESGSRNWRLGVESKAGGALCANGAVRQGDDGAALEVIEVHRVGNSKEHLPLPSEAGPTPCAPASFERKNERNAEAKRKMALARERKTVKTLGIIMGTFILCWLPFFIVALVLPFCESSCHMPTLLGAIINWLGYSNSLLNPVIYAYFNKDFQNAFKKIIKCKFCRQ

Serotonin 5-HT1D = Serotonin 5-HT1D (Homo sapiens, UniProt P28221); assay: Receptor binding, 5-HT1D
Chain of Serotonin 5-HT1D (P28221 whole entry): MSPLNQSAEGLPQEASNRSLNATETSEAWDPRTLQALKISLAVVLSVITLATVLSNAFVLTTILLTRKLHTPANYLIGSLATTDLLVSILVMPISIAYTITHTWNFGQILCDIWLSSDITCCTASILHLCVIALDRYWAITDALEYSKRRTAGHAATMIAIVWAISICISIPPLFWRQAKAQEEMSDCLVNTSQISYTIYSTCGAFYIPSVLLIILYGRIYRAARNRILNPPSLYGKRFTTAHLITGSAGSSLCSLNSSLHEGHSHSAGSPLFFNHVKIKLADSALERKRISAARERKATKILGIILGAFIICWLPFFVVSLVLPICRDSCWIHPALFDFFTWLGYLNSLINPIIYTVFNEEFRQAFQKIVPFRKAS

β-Adrenergic β1 = β-Adrenergic β1 (Homo sapiens, UniProt P08588); assay: Receptor binding, β1
Chain of β-Adrenergic β1 (P08588 whole entry): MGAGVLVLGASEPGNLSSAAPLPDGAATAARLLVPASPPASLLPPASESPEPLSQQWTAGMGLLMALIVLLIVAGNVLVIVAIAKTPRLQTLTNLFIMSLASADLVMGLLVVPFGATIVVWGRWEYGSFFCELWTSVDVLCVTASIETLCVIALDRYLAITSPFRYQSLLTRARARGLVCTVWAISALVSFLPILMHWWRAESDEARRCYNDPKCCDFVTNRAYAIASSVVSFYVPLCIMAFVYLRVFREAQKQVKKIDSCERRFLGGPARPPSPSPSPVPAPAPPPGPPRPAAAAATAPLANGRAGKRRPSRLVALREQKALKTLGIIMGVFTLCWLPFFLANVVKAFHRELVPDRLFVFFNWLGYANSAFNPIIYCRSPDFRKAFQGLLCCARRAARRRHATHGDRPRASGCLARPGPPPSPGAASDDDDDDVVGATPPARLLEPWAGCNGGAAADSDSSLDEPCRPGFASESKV

Muscarinic M4 = Muscarinic M4 (Homo sapiens, UniProt P08173); assay: Receptor binding, M4

pKi (β-Adrenergic β2): < 5.00
pKi (Sigma σ1): 6.66
pKi (Histamine H3): < 5.00
pKi (α-Adrenergic α1A): 5.23
pKi (Serotonin 5-HT2A): 6.03
pKi (Dopamine transporter): < 5.00
pKi (Dopamine D2): < 5.00
pKi (Histamine H2): 5.32
pKi (α-Adrenergic α1B): < 5.00
pKi (Serotonin 5-HT2C; 5-HT2C): 6.61
binding, in words (Serotonin 5-HT2C; HT2c, summary of Table 1): moderate binding
pKi (Serotonin 5-HT5A): 5.72
pKi (Opioid δ): 6.51
pKi (β-Adrenergic β3): < 5.00
pKi (Opioid μ): < 5.00
pKi (Dopamine D4): < 5.00
pKi (Serotonin 5-HT1B): 6.13
pKi (Serotonin transporter): 6.38
pKi (Muscarinic M3): < 5.00
pKi (Serotonin 5-HT1A): 7.49
binding, in words (Serotonin 5-HT1A; summary of Table 1): binds strongly
pKi (Serotonin 5-HT1D): 6.41
binding, in words (Serotonin 5-HT1D; summary of Table 1): moderate binding
pKi (β-Adrenergic β1): < 5.00
pKi (Muscarinic M4): < 5.00
SMILES: CN1CCc2c(c3cccc4c3n2Cc2ccccc2O4)C1 [Compound 13b]
number of lever presses (meth seeking behavior) [1]: significantly reduced
increase in motor activity elicited by MDMA ([2]; 10 mg/kg i.p. 30 min before MDMA 10 mg/kg): partially
increase in motor activity elicited by MDMA ([2]; 20 mg/kg i.p. 30 min before MDMA 10 mg/kg): completely blocked
binding, in words (dopamine receptors): neither of the two compounds 13a and 13b binds significantly
